# Experimental data as given in patent US20060034819A1, “Proteins and methods useful for assessing risk of cardiovascular disease” (UNITHER PHARMA, INC., priority 2002, published 2006).
# Tests used:
# NOS = details: LNMMA compared with ADMA; cited from earlier work
# DDAH = DDAH as an ADMA sensor; binding affinity low; cited from earlier work
# mutant DDAH = assay: fluorescence polarization immunoassay (FPIA) with ADMA-OG; format: binding, Human
# Text: Fluorescence Polarization Immunassay (FPIA) is another homogeneous solution phase immunoassay for small molecule analytes, which has the unique advantage that a positive signal is generated by competition. FPIA detects the difference between mutant DDAH-bound and free fluorescently-labelled ligand as the polarization of emitted light when excited by plane-polarized light. Small molecule ligands tumble so fast during the excited state that emitted light is nearly isotropic, whereas, the larger mutant DDAH-bound ligand hardly rotates at all during the excited state and therefore emits highly polarized or anisotropic light. Analyte is measured by its ability to compete with label for binding to mutant DDAH, and thereby lower the polarization of emitted light, and increase its intensity at certain angles relative to the incident light. […] Free ADMA is measured as a function of its concentration-dependent ability to compete with fluorescein-ADMA for binding to mutant DDAH thereby reducing polarized emission.
# ADMA is conjugated through its alpha-amino group to Oregon Green (OG) and purified by reversed phase HPLC. […] At 10^−10 M ADMA-OG, polarization is determined after equilibration with various concentrations of mutant DDAH ranging from 10^−10 M to 10^−6 M. The minimum value should be equivalent to that of the free conjugate. […]
smiles,measurement,setting,value
"CN(C)C(=N)NCCCC(N)C(=O)O (centres unmarked) [ADMA, asymmetric N,N-dimethyl arginine]",potency as inhibitors of NOS,NOS,equipotent
"CNC(=N)NCCC[C@H](N)C(=O)O [LNMMA, L,N-monomethylarginine]",potency as inhibitors of NOS,NOS,equipotent
"CN=C(NC)NCCC[C@H](N)C(=O)O [SDMA, symmetric dimethylarginine]",Km,DDAH,> 100 µM
same,inhibition of polarization,mutant DDAH; concentration equivalent to 10^−7 M free ADMA,no detectable inhibition
N=C(N)NCCC[C@H](N)C(=O)O [arginine],inhibition of polarization,mutant DDAH; 100-fold higher concentration than 10^−7 M free ADMA,no detectable inhibition
